Assays:
[1] = acute toxicity (LD50) in the mouse; assay type: in vivo; settings: for LD50: in vivo
[2] = rat, in vivo, ip, 50 mg/kg
Protocol: Per os, in the mouse still, the LD50 is above 2000 mg/kg. In the rat, after i.p. treatment with 50 mg/kg there was, within 3 hours from administration, a maximum lowering of the body temperature of 0.6° in respect to the controls treated with the only suspending medium.

[3] = hypotensive effect in the awake rabbit; assay type: in vivo; settings: same dosage (100 mg/kg) i.p.
[4] = six-week swine feeding study, weanling barrows (Example XI); assay type: in vivo; settings: six weeks; for daily feed (rel.) / Avg. daily gain (rel.): control = 100; for Avg. daily gain / Avg. daily gain (rel.): swine feed
Protocol: N-morpholinyl-β-benzoyl-propionamide was admixed with swine feed at 20 ppm and at 60 ppm. A six-week feeding study was conducted using weanling barrows. Pigs averaging 8.80 kg initially (4-5 weeks of age) were housed four pigs per pen. Test diets were fed ad libitum throughout the six-week study. Average final weight for all pigs was 27.33 kg.

[5] = 28-day chicken growth study, feed or i.m. injection (Example XII); assay type: in vivo, chickens
Protocol: Portions of N-morpholinyl-β-benzoyl-propionamide were admixed with chicken feed at 1 mg/kg and a 2 mg/kg, respectively. Another portion was formulated into an injectable formulation at a concentration of 2% in polyethylene glycol. The N-morpholinyl-β-benzoylpropionamide was then administered to chickens, either by i.m. injection or in feed, over 28-day period. One group of controls received no medication, while another group of controls received Bacitracin MD in its feed at 30 g/ton. Those chickens receiving intramuscular injections were injected once a week with a dosage of either 1 mg/kg or 2 mg/kg, based on body weight. Birds were weighed on days 0, 14 and 28.

[6] = 21-day battery study in chickens (Example XIII); assay type: in vivo
Protocol: N-morpholinyl-β-benzoyl-propionamide was admixed with chicken feed at concentrations of 1.0 ppm, 7.5 ppm and 15 ppm. A 21-day battery study was conducted with the NMBP-containing feed. One group of controls was unmedicated, while a second control group received Bacitracin MD in its feed at 30 g/ton. The birds were fed ad libitum and weighed on days 7, 14 and 21. There were 10 birds per replication, 4 replications in controls and 2 replications per drug treatment.

[7] = 44-day floor-pen study in chickens (Example XV); assay type: in vivo; settings: 44 days
Text: There were 60 chickens per replication, 3 replications per treatment. One group of controls was unmedicated, while a second control group received Bacitracin in the feed at 30 g/ton.

[8] = Injection 1 mg/kg i.m. once a week, Day 14
[9] = Injection 1 mg/kg i.m. once a week, Day 28
[10] = Injection 2 mg/kg i.m. once a week, Day 14
[11] = Injection 2 mg/kg i.m. once a week, Day 28

Compound: O=C(CCC(=O)N1CCOCC1)c1ccccc1 [NMBP, N-morpholinyl-β-benzoyl-propionamide]
- LD50, safe limits ([1]; i.p.): 648 to 1363 mg/kg
- LD50 ([1]; ip): 940 mg/kg
- LD50 ([1]; po, per os): > 2000 mg/kg
- maximum lowering of the body temperature in respect to the controls [2]: 0.6 °
- hypotensive effect [3]: not hypotensive
- daily feed ([4]; 20 ppm): 1.022 kg
- daily feed (rel.) ([4]; 20 ppm): 107
- daily feed ([4]; 60 ppm): 0.96 kg
- daily feed (rel.) ([4]; 60 ppm): 101
- Avg. daily gain ([4]; 20 ppm): 0.45 kg
- Avg. daily gain (rel.) ([4]; 20 ppm): 108
- Avg. daily gain ([4]; 60 ppm): 0.42 kg
- Avg. daily gain (rel.) ([4]; 60 ppm): 100
- Average Weight ([5]; Feed 1 mg/kg, Day 0 (baseline)): 98.9 g
- Average Weight ([5]; Feed 1 mg/kg, Day 14): 462.8 g
- Feed Conversion ([5]; Feed 1 mg/kg, Day 14): 1.38
- Weight Gain ([5]; Feed 1 mg/kg, Day 14): 363.9 g
- Average Weight ([5]; Feed 1 mg/kg, Day 28): 947.6 g
- Feed Conversion ([5]; Feed 1 mg/kg, Day 28): 1.64
- Weight Gain ([5]; Feed 1 mg/kg, Day 28): 848.7 g
- Average Weight ([5]; Feed 2 mg/kg, Day 0 (baseline)): 98.5 g
- Average Weight ([5]; Feed 2 mg/kg, Day 14): 474.3 g
- Feed Conversion ([5]; Feed 2 mg/kg, Day 14): 1.38
- Weight Gain ([5]; Feed 2 mg/kg, Day 14): 375.8 g
- Average Weight ([5]; Feed 2 mg/kg, Day 28): 1013.5 g
- Feed Conversion ([5]; Feed 2 mg/kg, Day 28): 1.56
- Weight Gain ([5]; Feed 2 mg/kg, Day 28): 915.0 g
- Average Weight ([5]; Injection 1 mg/kg i.m. once a week, Day 0 (baseline)): 98.7 g
- Average Weight [5, 8]: 460.6 g
- Feed Conversion [5, 8]: 1.37
- Weight Gain [5, 8]: 361.9 g
- Average Weight [5, 9]: 938.2 g
- Feed Conversion [5, 9]: 1.61
- Weight Gain [5, 9]: 839.5 g
- Average Weight ([5]; Injection 2 mg/kg i.m. once a week, Day 0 (baseline)): 98.6 g
- Average Weight [5, 10]: 456.3 g
- Feed Conversion [5, 10]: 1.38
- Weight Gain [5, 10]: 357.7 g
- Average Weight [5, 11]: 971.4 g
- Feed Conversion [5, 11]: 1.56
- Weight Gain [5, 11]: 872.8 g
- F/G ([6]; feed 1 ppm, Day 7): 1.38
- Weight Gain ([6]; feed 1 ppm, Day 7): 341 g
- F/G ([6]; feed 1 ppm, Day 14): 1.47
- Weight Gain ([6]; feed 1 ppm, Day 14): 715 g
- F/G ([6]; feed 1 ppm, Day 21): 1.62
- Weight Gain ([6]; feed 1 ppm, Day 21): 1152 g
- F/G ([6]; feed 7.5 ppm, Day 7): 1.40
- Weight Gain ([6]; feed 7.5 ppm, Day 7): 325 g
- F/G ([6]; feed 7.5 ppm, Day 14): 1.49
- Weight Gain ([6]; feed 7.5 ppm, Day 14): 697 g
- F/G ([6]; feed 7.5 ppm, Day 21): 1.60
- Weight Gain ([6]; feed 7.5 ppm, Day 21): 1113 g
- F/G ([6]; feed 15 ppm, Day 7): 1.42
- Weight Gain ([6]; feed 15 ppm, Day 7): 318 g
- F/G ([6]; feed 15 ppm, Day 14): 1.47
- Weight Gain ([6]; feed 15 ppm, Day 14): 688 g
- F/G ([6]; feed 15 ppm, Day 21): 1.54
- Weight Gain ([6]; feed 15 ppm, Day 21): 1164 g
- Average Live Bird Weight ([7]; feed 1.0 ppm): 2.13 kg
- Feed Conversion ([7]; feed 1.0 ppm): 1.72
- Average Live Bird Weight ([7]; feed 2.5 ppm): 2.14 kg
- Feed Conversion ([7]; feed 2.5 ppm): 1.73
- Average Live Bird Weight ([7]; feed 5 ppm): 2.08 kg
- Feed Conversion ([7]; feed 5 ppm): 1.75
- Average Live Bird Weight ([7]; feed 10 ppm): 2.14 kg
- Feed Conversion ([7]; feed 10 ppm): 1.72
- Average Live Bird Weight ([7]; feed 20 ppm): 2.12 kg
- Feed Conversion ([7]; feed 20 ppm): 1.72
- Average Live Bird Weight ([7]; feed 40 ppm): 2.10 kg
- Feed Conversion ([7]; feed 40 ppm): 1.75
- Average Live Bird Weight ([7]; feed 60 ppm): 2.14 kg
- Feed Conversion ([7]; feed 60 ppm): 1.75

Reference: patent US4950669A, “Methods and compositions for promoting growth of animals” (priority 1987, dated 1990)
